Results on one compound are retold here after PMC5218480 (PLoS ONE, 2017).

This assay relates to MV-4-11 cells. Nature of the assay: Gene expression microarray analysis (Affymetrix PrimeView) and GSEA. The following applies: ProbeSet 11720269_a_at; LIST B. Set-up: RFU PODN (11730768_x_at) / Fold change /veh PODN (11730768_x_at) / RFU LINC00158 (11744669_a_at) / Fold change /veh LINC00158 (11744669_a_at) / RFU DUSP10 (11751237_a_at) / Fold change /veh DUSP10 (11751237_a_at) / RFU ID3 (11757404_x_at) / Fold change /veh ID3 (11757404_x_at) / RFU PLEKHG5 (11737974_s_at) / Fold change /veh PLEKHG5 (11737974_s_at) / RFU LRRC4B (11730491_at) / Fold change /veh LRRC4B (11730491_at) / RFU GIMAP4 (11747438_a_at) / Fold change /veh GIMAP4 (11747438_a_at) / RFU KRT8 (11758183_x_at) / Fold change /veh KRT8 (11758183_x_at) / RFU CNN1 (11734310_a_at) / Fold change /veh CNN1 (11734310_a_at) / RFU VPS37D (11726825_at) / Fold change /veh VPS37D (11726825_at) / RFU C10orf10 (11716522_x_at) / Fold change /veh C10orf10 (11716522_x_at) / RFU KIR2DL2 /// KIR2DL4 /// KIR2DL5A /// KIR2DL5B /// KIR2DS1 /// KIR2DS2 /// KIR2DS3 /// KIR2DS4 /// KIR3DL3 /// KIR3DL3 /// KIR3DS1 (11738374_at) / Fold change /veh KIR2DL2 /// KIR2DL4 /// KIR2DL5A /// KIR2DL5B /// KIR2DS1 /// KIR2DS2 /// KIR2DS3 /// KIR2DS4 /// KIR3DL3 /// KIR3DL3 /// KIR3DS1 (11738374_at) / RFU C1QL1 (11718748_at) / Fold change /veh C1QL1 (11718748_at) / RFU TMPRSS4 (11747572_a_at) / Fold change /veh TMPRSS4 (11747572_a_at) / RFU HAMP (11756126_x_at) / Fold change /veh HAMP (11756126_x_at) / RFU RNFT2 (11725882_a_at) / Fold change /veh RNFT2 (11725882_a_at) / RFU NR4A2 (11747474_a_at) / Fold change /veh NR4A2 (11747474_a_at) / RFU ABCC12 (11746883_a_at) / Fold change /veh ABCC12 (11746883_a_at) / RFU TMEM136 (11760407_x_at) / Fold change /veh TMEM136 (11760407_x_at) / RFU CLDN22 /// WWC2 (11732394_at) / Fold change /veh CLDN22 /// WWC2 (11732394_at) / RFU HLA-DPB1 (11760878_x_at) / Fold change /veh HLA-DPB1 (11760878_x_at) / RFU SPINT1 (11716480_a_at) / Fold change /veh SPINT1 (11716480_a_at) / RFU GAP43 (11754022_s_at) / Fold change /veh GAP43 (11754022_s_at) / RFU A4GNT (11735810_at) / Fold change /veh A4GNT (11735810_at) / RFU PRB3 (11715151_x_at) / Fold change /veh PRB3 (11715151_x_at) / RFU TUBB4B (11761932_at) / Fold change /veh TUBB4B (11761932_at) / RFU CAPN14 (11732068_a_at) / Fold change /veh CAPN14 (11732068_a_at) / RFU TMCC2 (11721928_a_at) / Fold change /veh TMCC2 (11721928_a_at) / RFU IRGQ (11745062_a_at) / Fold change /veh IRGQ (11745062_a_at) / RFU FAM174B (11720279_a_at) / Fold change /veh FAM174B (11720279_a_at) / RFU TMPRSS4 (11748680_a_at) / Fold change /veh TMPRSS4 (11748680_a_at) / RFU FAM212B (11763350_a_at) / Fold change /veh FAM212B (11763350_a_at) / RFU PLEKHG5 (11743358_a_at) / Fold change /veh PLEKHG5 (11743358_a_at) / RFU ZSCAN30 (11745921_a_at) / Fold change /veh ZSCAN30 (11745921_a_at) / RFU CMKLR1 (11741424_a_at) / Fold change /veh CMKLR1 (11741424_a_at) / RFU LOC101060620 /// MAPK8IP1 (11723275_at) / Fold change /veh LOC101060620 /// MAPK8IP1 (11723275_at) / RFU SPTSSB (11747773_x_at) / Fold change /veh SPTSSB (11747773_x_at) / RFU PRSS12 (11739890_at) / Fold change /veh PRSS12 (11739890_at) / RFU BIN1 (11741810_x_at) / Fold change /veh BIN1 (11741810_x_at) / RFU WNT11 (11732464_a_at) / Fold change /veh WNT11 (11732464_a_at) / RFU C10orf10 (11716521_a_at) / Fold change /veh C10orf10 (11716521_a_at) / RFU C5orf56 (11738089_at) / Fold change /veh C5orf56 (11738089_at) / RFU CYB561 (11721691_x_at) / Fold change /veh CYB561 (11721691_x_at) / RFU ANKRD19P (11752326_a_at) / Fold change /veh ANKRD19P (11752326_a_at) / RFU OR2T12 /// OR2T33 /// OR2T8 (11738714_s_at) / Fold change /veh OR2T12 /// OR2T33 /// OR2T8 (11738714_s_at) / RFU VCAN (11748164_a_at) / Fold change /veh VCAN (11748164_a_at) / RFU JSRP1 (11732532_at) / Fold change /veh JSRP1 (11732532_at) / RFU KRTAP10-11 (11738290_x_at) / Fold change /veh KRTAP10-11 (11738290_x_at) / RFU MYO3A (11730013_a_at) / Fold change /veh MYO3A (11730013_a_at) / RFU EBF3 (11725865_a_at) / Fold change /veh EBF3 (11725865_a_at) / RFU CAMK2N1 (11719241_x_at) / Fold change /veh CAMK2N1 (11719241_x_at) / RFU C5orf56 (11738088_a_at) / Fold change /veh C5orf56 (11738088_a_at) / RFU OLFML3 (11715873_a_at) / Fold change /veh OLFML3 (11715873_a_at) / RFU LOC100653217 /// NTM (11731650_a_at) / Fold change /veh LOC100653217 /// NTM (11731650_a_at) / RFU MAPK11 (11762145_a_at) / Fold change /veh MAPK11 (11762145_a_at) / RFU FIZ1 (11724087_x_at) / Fold change /veh FIZ1 (11724087_x_at) / RFU OASL (11726364_x_at) / Fold change /veh OASL (11726364_x_at) / RFU SOX15 (11748057_x_at) / Fold change /veh SOX15 (11748057_x_at) / RFU CD79A (11719716_a_at) / Fold change /veh CD79A (11719716_a_at) / RFU HIST1H1D (11736915_at) / Fold change /veh HIST1H1D (11736915_at) / RFU CASKIN2 (11723855_a_at) / Fold change /veh CASKIN2 (11723855_a_at) / RFU LOC730098 (11760151_x_at) / Fold change /veh LOC730098 (11760151_x_at) / RFU OR4N2 (11742367_at) / Fold change /veh OR4N2 (11742367_at) / RFU PRRT2 (11749266_a_at) / Fold change /veh PRRT2 (11749266_a_at) / RFU SNX32 (11753110_a_at) / Fold change /veh SNX32 (11753110_a_at) / RFU CDHR5 (11726645_a_at) / Fold change /veh CDHR5 (11726645_a_at) / RFU RCAN1 (11760418_a_at) / Fold change /veh RCAN1 (11760418_a_at) / RFU FAM167A (11723789_a_at) / Fold change /veh FAM167A (11723789_a_at) / RFU FAM26E (11764081_at) / Fold change /veh FAM26E (11764081_at) / RFU ISYNA1 (11749810_s_at) / Fold change /veh ISYNA1 (11749810_s_at) / RFU ACY1 (11761880_at) / Fold change /veh ACY1 (11761880_at) / RFU 11764098_at / Fold change /veh 11764098_at / RFU SAMD14 (11745864_x_at) / Fold change /veh SAMD14 (11745864_x_at) / RFU NPB (11741838_a_at) / Fold change /veh NPB (11741838_a_at) / RFU TMPRSS6 (11731388_a_at) / Fold change /veh TMPRSS6 (11731388_a_at) / RFU KRTAP10-2 (11738614_at) / Fold change /veh KRTAP10-2 (11738614_at) / RFU ARHGAP8 /// PRR5-ARHGAP8 (11727945_x_at) / Fold change /veh ARHGAP8 /// PRR5-ARHGAP8 (11727945_x_at) / RFU KRTAP5-7 /// NADSYN1 (11734609_at) / Fold change /veh KRTAP5-7 /// NADSYN1 (11734609_at) / RFU RASL12 (11751679_a_at) / Fold change /veh RASL12 (11751679_a_at) / RFU CDKN2B (11736163_a_at) / Fold change /veh CDKN2B (11736163_a_at) / RFU PRF1 (11729649_at) / Fold change /veh PRF1 (11729649_at) / RFU, ZNF638 /// ZNF638-IT1 / Fold change vs veh, ZNF638 /// ZNF638-IT1 / RFU, PANK3 / Fold change vs veh, PANK3 / RFU, SH3YL1 / Fold change vs veh, SH3YL1 / RFU, ZEB2 / Fold change vs veh, ZEB2 / RFU, NRIP1 / Fold change vs veh, NRIP1 / RFU, PTTG1IP / Fold change vs veh, PTTG1IP / RFU, CAPN2 / Fold change vs veh, CAPN2 / RFU, MED14 / Fold change vs veh, MED14 / RFU, SNORA58 / Fold change vs veh, SNORA58 / RFU, C1orf63 / Fold change vs veh, C1orf63 / RFU, LRRFIP1 / Fold change vs veh, LRRFIP1 / RFU, NDUFAF7 / Fold change vs veh, NDUFAF7 / RFU, SLC12A2 / Fold change vs veh, SLC12A2 / RFU, IBTK / Fold change vs veh, IBTK / RFU, ESF1 / Fold change vs veh, ESF1 / Fold change vs veh, TMEM50B / RFU, TAOK1 / Fold change vs veh, TAOK1 / RFU, ACBD3 / Fold change vs veh, ACBD3 / RFU, TMA16 / Fold change vs veh, TMA16 / RFU, RWDD3 / Fold change vs veh, RWDD3 / RFU, BCAT1 / Fold change vs veh, BCAT1 / RFU, EDEM3 / Fold change vs veh, EDEM3 / RFU, TMEM33 / Fold change vs veh, TMEM33 / RFU, WDR75 / Fold change vs veh, WDR75 / RFU, AHCTF1 / Fold change vs veh, AHCTF1 / RFU, TFRC / Fold change vs veh, TFRC / RFU, ZDHHC17 / Fold change vs veh, ZDHHC17 / RFU, NOM1 / Fold change vs veh, NOM1 / RFU, ARL8B / Fold change vs veh, ARL8B / RFU, ZBTB11 / Fold change vs veh, ZBTB11 / RFU, TAMM41 / Fold change vs veh, TAMM41 / RFU, KIAA1704 /// LOC100996395 / Fold change vs veh, KIAA1704 /// LOC100996395 / RFU, ING1 / Fold change vs veh, ING1 / RFU, TRMT61B / Fold change vs veh, TRMT61B / RFU, FUBP3 / Fold change vs veh, FUBP3 / RFU, TP53 / Fold change vs veh, TP53 / RFU, TNKS2 / Fold change vs veh, TNKS2 / RFU, ZFP14 / Fold change vs veh, ZFP14 / RFU, ACTR2 / Fold change vs veh, ACTR2 / RFU, PPP3R1 / Fold change vs veh, PPP3R1 / RFU, PIK3R1 / Fold change vs veh, PIK3R1 / RFU, HNRNPA1 / Fold change vs veh, HNRNPA1 / RFU, RNF170 / Fold change vs veh, RNF170 / RFU, ZNF28 / Fold change vs veh, ZNF28 / RFU, RNGTT / Fold change vs veh, RNGTT / RFU, OGT / Fold change vs veh, OGT / RFU, BRD1 / Fold change vs veh, BRD1 / RFU, MARS / Fold change vs veh, MARS / RFU, ZNF655 / Fold change vs veh, ZNF655 / RFU, FAHD1 / Fold change vs veh, FAHD1 / RFU, BDP1 / Fold change vs veh, BDP1 / RFU, LRRCC1 / Fold change vs veh, LRRCC1 / RFU, ARID1A / Fold change vs veh, ARID1A / RFU, ZNF146 / Fold change vs veh, ZNF146 / RFU, ZNF330 / Fold change vs veh, ZNF330 / RFU, GPN3 / Fold change vs veh, GPN3 / RFU, C9orf123 / Fold change vs veh, C9orf123 / RFU, N4BP2L2 / Fold change vs veh, N4BP2L2 / RFU, ARFIP1 / Fold change vs veh, ARFIP1 / RFU, FAM179B / Fold change vs veh, FAM179B / RFU, BCL10 / Fold change vs veh, BCL10 / RFU, UHRF1BP1L / Fold change vs veh, UHRF1BP1L / RFU, BET1 / Fold change vs veh, BET1 / RFU, CNOT2 / Fold change vs veh, CNOT2 / RFU, ZNF268 / Fold change vs veh, ZNF268 / Fold change vs veh, ZNF507 / RFU, DGCR2 / Fold change vs veh, DGCR2 / RFU, WDSUB1 / Fold change vs veh, WDSUB1 / Fold change vs veh, HSP90B1 /// MIR3652 / RFU, ADSS / Fold change vs veh, ADSS / RFU, GK / Fold change vs veh, GK / RFU, ZNF148 / Fold change vs veh, ZNF148 / RFU, TAF9 / Fold change vs veh, TAF9 / RFU, SLC1A5 / Fold change vs veh, SLC1A5 / RFU, SLMO2 / Fold change vs veh, SLMO2 / RFU, ABCC4 / Fold change vs veh, ABCC4 / RFU, LOC101060439 /// RAP1B / Fold change vs veh, LOC101060439 /// RAP1B / RFU, RFX7 / Fold change vs veh, RFX7 / RFU, GTPBP10 / Fold change vs veh, GTPBP10 / RFU, CNEP1R1 / Fold change vs veh, CNEP1R1 / RFU, BIVM-ERCC5 /// ERCC5 / Fold change vs veh, BIVM-ERCC5 /// ERCC5 / RFU, ILF3 / Fold change vs veh, ILF3 / RFU 11762660_at / Fold change /veh 11762660_at / RFU VCAN (11757783_s_at) / Fold change /veh VCAN (11757783_s_at) / RFU DDX43 (11728927_at) / Fold change /veh DDX43 (11728927_at) / RFU KRT8 (11758188_x_at) / Fold change /veh KRT8 (11758188_x_at) / RFU NKD1 (11759106_at) / Fold change /veh NKD1 (11759106_at) / RFU SRD5A1 (11742802_a_at) / Fold change /veh SRD5A1 (11742802_a_at) / RFU TPSAB1 /// TPSB2 (11721975_s_at) / Fold change /veh TPSAB1 /// TPSB2 (11721975_s_at) / RFU GSTM3 (11746129_a_at) / Fold change /veh GSTM3 (11746129_a_at) / RFU IL23R (11737362_x_at) / Fold change /veh IL23R (11737362_x_at) / RFU TMEM51 (11727254_a_at) / Fold change /veh TMEM51 (11727254_a_at) / RFU PIWIL2 (11732686_x_at) / Fold change /veh PIWIL2 (11732686_x_at) / RFU ORM1 (11744905_x_at) / Fold change /veh ORM1 (11744905_x_at) / RFU CCDC152 (11743942_at) / Fold change /veh CCDC152 (11743942_at) / RFU ECM1 (11717891_a_at) / Fold change /veh ECM1 (11717891_a_at) / RFU IL23R (11748794_a_at) / Fold change /veh IL23R (11748794_a_at) / RFU TNFAIP8L3 (11732012_x_at) / Fold change /veh TNFAIP8L3 (11732012_x_at) / RFU MBOAT4 (11741988_at) / Fold change /veh MBOAT4 (11741988_at) / RFU 11764193_at / Fold change /veh 11764193_at / RFU TMEM53 (11763286_at) / Fold change /veh TMEM53 (11763286_at) / RFU MAGEB2 (11727129_at) / Fold change /veh MAGEB2 (11727129_at) / RFU TMEM200A (11744735_a_at) / Fold change /veh TMEM200A (11744735_a_at) / RFU CCDC152 (11751479_a_at) / Fold change /veh CCDC152 (11751479_a_at) / RFU FAM211A (11726209_a_at) / Fold change /veh FAM211A (11726209_a_at) / RFU RGS16 (11746705_a_at) / Fold change /veh RGS16 (11746705_a_at) / RFU VCAN (11755009_s_at) / Fold change /veh VCAN (11755009_s_at) / RFU RHOB (11743442_s_at) / Fold change /veh RHOB (11743442_s_at) / RFU RGS16 (11720943_a_at) / Fold change /veh RGS16 (11720943_a_at) / RFU RGS16 (11720944_at) / Fold change /veh RGS16 (11720944_at) / RFU, VPS4B / Fold change vs veh, VPS4B / RFU, CREB1 / Fold change vs veh, CREB1 / RFU, DNAJC13 / Fold change vs veh, DNAJC13 / RFU, GNAQ / Fold change vs veh, GNAQ / RFU, CDK5R1 / Fold change vs veh, CDK5R1 / RFU, ZRANB3 / Fold change vs veh, ZRANB3 / RFU, CUL4A / Fold change vs veh, CUL4A / RFU, CCNY / Fold change vs veh, CCNY / RFU, UFL1 / Fold change vs veh, UFL1 / RFU, COG3 / Fold change vs veh, COG3 / RFU, DIAPH2 / Fold change vs veh, DIAPH2 / RFU, SKA2 / Fold change vs veh, SKA2 / RFU, AFF3 / Fold change vs veh, AFF3 / RFU, LMF1 / Fold change vs veh, LMF1 / RFU, IPO11 / Fold change vs veh, IPO11 / RFU, DFFB / Fold change vs veh, DFFB / RFU, FOXP1 / Fold change vs veh, FOXP1 / RFU, CARD8 / Fold change vs veh, CARD8 / RFU, STRN3 / Fold change vs veh, STRN3 / RFU, ADK / Fold change vs veh, ADK / RFU, RASSF2 / Fold change vs veh, RASSF2 / RFU, WIPF1 / Fold change vs veh, WIPF1 / RFU, LARP1B / Fold change vs veh, LARP1B / RFU, RASA1 / Fold change vs veh, RASA1 / RFU, RB1 / Fold change vs veh, RB1 / RFU, PPFIA1 / Fold change vs veh, PPFIA1 / RFU, MAT2A / Fold change vs veh, MAT2A / RFU, CCT5 / Fold change vs veh, CCT5 / RFU, WDR92 / Fold change vs veh, WDR92 / RFU, CUX1 / Fold change vs veh, CUX1 / RFU, TTC7A / Fold change vs veh, TTC7A / RFU, TMEM135 / Fold change vs veh, TMEM135 / RFU, DEPTOR / Fold change vs veh, DEPTOR / RFU, CPM / Fold change vs veh, CPM / RFU, DNAJB6 / Fold change vs veh, DNAJB6 / RFU, CACNA2D3 / Fold change vs veh, CACNA2D3 / RFU, DTX4 / Fold change vs veh, DTX4 / RFU, TFCP2 / Fold change vs veh, TFCP2 / RFU, GMCL1 /// GMCL1P1 / Fold change vs veh, GMCL1 /// GMCL1P1 / RFU, AEBP2 / Fold change vs veh, AEBP2 / RFU, SNHG1 /// SNORD22 /// SNORD25 /// SNORD26 /// SNORD27 /// SNORD28 /// SNORD29 /// SNORD31 / Fold change vs veh, SNHG1 /// SNORD22 /// SNORD25 /// SNORD26 /// SNORD27 /// SNORD28 /// SNORD29 /// SNORD31 / Fold change (Aza/veh), C12orf56 (ProbeSet 11735607_a_at) / Fold change (ACY-1035/veh), C12orf56 (ProbeSet 11735607_a_at) / Fold change (Aza/veh), FGFR1OP (ProbeSet 11751329_s_at) / Fold change (ACY-1035/veh), FGFR1OP (ProbeSet 11751329_s_at) / Fold change (Aza/veh), VPS36 (ProbeSet 11739960_a_at) / Fold change (ACY-1035/veh), VPS36 (ProbeSet 11739960_a_at) / RFU SYPL1 (11715823_x_at) / Fold change /veh SYPL1 (11715823_x_at) / RFU IGFBP7 (11715501_s_at) / Fold change /veh IGFBP7 (11715501_s_at) / RFU REEP3 (11722064_at) / Fold change /veh REEP3 (11722064_at) / RFU IGLL1 (11728026_x_at) / Fold change /veh IGLL1 (11728026_x_at): dose or concentration left out as unconfirmed. The assay is classed as cell-based, human.

Regarding `Nc1ncn([C@@H]2O[C@H](CO)[C@@H](O)[C@H]2O)c(=O)n1` [azacitidine], the “Fold change vs veh, IBTK” value came out at 0.94.
